The values that follow come from patent US20100215594A1, “Tyrosinase Inhibitors” (priority 2007, published 2010).

This test addresses tyrosinase from fungi. Kind of test: Tyrosinase assay (L-DOPA as substrate, optical density at 470 nm). Conditions: tyrosinase from fungi (16U, Fluka), phosphate buffer pH 6.8, 10 min pre-incubation at 25° C., read-out: IC50 (concentration of the test compound at which 50% of the tyrosinase activity is inhibited). Format: biochemical. On the procedure: The action of the compounds I or Ia as skin lighteners is tested through their ability to inhibit the enzyme tyrosinase and thus to suppress melanin synthesis.
The inhibiting action of the compounds of the formula I or Ia against tyrosinase was assessed using tyrosinase from fungi and L-DOPA as substrate.
The compounds (1) and (2), as obtained in Example 1, and L-dopa are pre-incubated for 10 minutes at 25° C. in phosphate buffer (pH 6.8), and tyrosinase from fungi (16U) (Fluka) is subsequently added. The optical density of the samples is measured at 470 nm against a negative control (without active compound). Kojic acid and 4-hexylresorcinol are also tested as tyrosinase reference, i.e. positive control.
The results are shown in the following table, expressed in the IC50 value (the concentration of the test compound at which 50% of the tyrosinase activity is inhibited).

Consider `CCCCCCc1ccc(O)cc1O` [4-Hexylresorcinol], for which the IC50 turned out to be 0.5 µM.
To `CCCCCCc1ccc(OC(=O)C2CCC(=O)N2)cc1O` (stereo not drawn) [(1), 4-Hexyl-3-hydroxyphenyl 2-pyrrolidinone-5-carboxylate] belongs 19 µM.
The figure for `O=c1cc(CO)occ1O` [Kojic acid] is 12 µM.
